Measurements from patent publication US4687780A, “Anti-tumor compounds of platinum” (Johnson Matthey PLC, priority 1985, dated 1987).

Legend:
ADJ/PC6A plasmacytoma = test: activity against ADJ/PC6A plasmacytoma grown subcutaneously in mice, oral administration; assay type: in vivo, female Balb C^- mice
Experimental: (§1) Additionally, the same compounds were tested for activity against ADJ/PC6A plasmacytoma grown subcutaneously in female Balb C^- mice following oral administration as a suspension in arachis oil. Dosage levels were at 100μ mole/kg of body weight for pharmacokinetic tests to establish the extent of absorption into the systemic circulation.
(§2) Results are presented in terms of concentration (μg/ml) of Pt in the blood and cumulative percentage dose in urine, cage wash and faeces, all after specified time intervals. Results for anti-tumor effect are expressed as LD50 (mg/kg), ED90 (mg/kg), and TI (LD50 /ED90). The figures for LD50 (the dose level causing 50% deaths) and ED90 (the dose level causing a 90% reduction in tumor size) are determined by administering dosage levels ranging from lethal to non-tumor inhibitory. The therapeutic index (TI) is an indication of the selectivity of the compound as an anti-tumor agent.

malignant tumor = details: Phase I, reported by Harrap; cited from earlier work
B16 melanoma = test: anti-tumor activity against B16 melanoma in BDF1 female mice, i.p. 9 daily doses; assay type: in vivo; details: 9 daily doses from Day 1
Experimental: (§3) Compounds according to the invention were screened for anti-tumor activity against L1210 leukaemia and B16 melanoma in mice. The compounds were administered intraperitoneally as solutions or suspensions in water and "Tween" 80 as carrier to CDF1 male mice (L1210) and BDF1 female mice (B16). […] For each dose level, results are quoted in terms of median survival time (MST); the comparative effect (i.e. MST/MST control×100); average weight change (AWC) by Day 5 (L1210) or Day 6 (B16); and the number of mice alive (MA) at Day 5 (L1210) or Day 10 (B16).
(§4) Results were as follows for the compounds as prepared in Examples 3 and 4.
2. B16 (0.5 ml 10% BREI): treatment consisted of 9 daily doses beginning at Day 1.

L1210 leukaemia = test: anti-tumor activity against L1210 leukaemia in CDF1 male mice, i.p. single dose Day 1; assay type: in vivo; details: single dose Day 1
Experimental: as §3, §4
1. L1210 (1×10^6 cells): treatment consisted of single dose on Day 1.

[1] = pharmacokinetic tests: Pt in blood and cumulative percentage dose in urine, cage wash and faeces after oral administration; assay type: in vivo, female Balb C^- mice; details: oral, JM-8 at 50 mg/kg
Experimental: as §1, §2

[2] = LD50 (dose level causing 50% deaths), oral administration; assay type: in vivo, female Balb C^- mice; details: suspension in arachis oil
Experimental: as §1, §2

[3] = reported by Harrap; cited from earlier work

[NH2][Pt]1([NH2])[O]C(=O)C2(CCC2)C(=O)[O]1 [JM-8, reference compound]
therapeutic index TI (LD50/ED90) (ADJ/PC6A plasmacytoma): 2.4
ED90 (dose level causing a 90% reduction in tumor size) (ADJ/PC6A plasmacytoma; suspension in arachis oil): 99 mg/kg
Phase I clinical trial outcome (malignant tumor): reasonably promising on a Phase I clinical trial
side-effects in Phase I clinical trial (malignant tumor): myelosuppression and to a lesser extent vomiting remained troublesome
% T/C (MST/MST control×100) (B16 melanoma; 2 mg/kg): 112%
% T/C (MST/MST control×100) (B16 melanoma; 4 mg/kg): 115%
% T/C (MST/MST control×100) (B16 melanoma; 8 mg/kg): 150%
% T/C (MST/MST control×100) (B16 melanoma; 16 mg/kg): 176%
% T/C (MST/MST control×100) (B16 melanoma; 32 mg/kg): 176%
% T/C (MST/MST control×100) (L1210 leukaemia; 4 mg/kg): 100%
% T/C (MST/MST control×100) (L1210 leukaemia; 8 mg/kg): 121%
% T/C (MST/MST control×100) (L1210 leukaemia; 16 mg/kg): 143%
% T/C (MST/MST control×100) (L1210 leukaemia; 32 mg/kg): 171%
% T/C (MST/MST control×100) (L1210 leukaemia; 64 mg/kg): 150%
% T/C (MST/MST control×100) (L1210 leukaemia; 128 mg/kg): 86%
Blood conc. of Pt ([1]; 1 hr): 2.4 μg/ml of whole blood
Blood conc. of Pt ([1]; 2 hrs): 1.7 μg/ml of whole blood
Blood conc. of Pt ([1]; 4 hrs): 0.72 μg/ml of whole blood
Blood conc. of Pt ([1]; 7 hrs): 0.63 μg/ml of whole blood
Blood conc. of Pt ([1]; 24 hrs): 0.25 μg/ml of whole blood
Urine dose (cumulative %) ([1]; 24 hrs): 10.3%
Blood conc. of Pt ([1]; 48 hrs): 0.25 μg/ml of whole blood
Urine dose (cumulative %) ([1]; 48 hrs): 10.8%
LD50 (dose level causing 50% deaths) [2]: 235 mg/kg

N.N.O=C([O-])C(O)C(=O)[O-].[Pt+2] [JM-5, diammine(2-hydroxymalonato)platinum(II)]
screening results [3]: only moderately promising on screening results

CCC(C(=O)[O-])C(=O)[O-].N.N.[Pt+2] [JM-10, diammine(2-ethylmalonato)-platinum(II)]
screening results [3]: only moderately promising on screening results
